Test results as given in ChEMBL document CHEMBL6134920, “Novel Heterocyclic Pyrimidine Derivatives as GSK3α Inhibitors” (ACS Med Chem Lett, 2025).

assay: Inhibition of Nanoluc-GSK2alpha (unknown origin) expressed in HEK293 cells measured after overnight incubation by NanoBRET- cellular assay; details: Homo sapiens

SMILES | IC50
COCC(N)c1cncc(NC(=O)c2c(N)ncn(-c3c(Cl)cc(OC4CC4)cc3Cl)c2=O)c1 (stereo unspecified) | 2.4 nM
CCNCc1cncc(NC(=O)c2c(N)ncn(-c3c(Cl)cc(OCC)cc3Cl)c2=O)c1 | 4.8 nM
COCC(N)c1cncc(NC(=O)c2c(N)ncn(-c3c(Cl)cc(C(F)F)cc3Cl)c2=O)c1 (stereo unspecified) | 2.8 nM
COCc1cc(Cl)c(-n2cnc(N)c(C(=O)Nc3cncc(C(N)COC)c3)c2=O)c(Cl)c1 (stereo unspecified) | 2.4 nM
CNC(COC)c1cncc(NC(=O)c2c(N)ncn(-c3c(Cl)cc(COC)cc3Cl)c2=O)c1 (stereo unspecified) | 1.9 nM
Nc1ncn(-c2c(Cl)cc(C(F)CF)cc2Cl)c(=O)c1C(=O)Nc1cncc([C@H]2CCCCN2)c1 (stereo partly specified) | 2 nM
